Measurements taken from patent publication US11732277B2, “Cellular production of pure iron oxide nanoparticles” (NANOBACTERIE, priority 2018, dated 2023).
Where two headings read alike, the source gives them in different places.

How the values were obtained:
[1] = test system: MSR-1 magnetotactic bacteria; assay type: cell-based; conditions: for Growth ratio (ODD13/ODD6) / Optical density following pre-growth (ODD6) / Optical density following growth (ODD13): condition 4, individual vitamins; for Optical density following pre-growth (ODD6) / Optical density following growth (ODD13): OD at 565 nm; for Optical density following pre-growth (ODD6): day 6; for Optical density following growth (ODD13): day 13; for OD565 nmD13/OD565 nmD6: condition 4, individual vitamin replacing yeast extract, mineral elixir CB3, 50 mL tubes
Experimental: Optical density measurements of suspensions of whole magnetotactic bacteria to assess bacterial growth: The optical density of the different suspensions of magnetotactic bacteria was measured at 565 nm, designated as OD565 nm, using a Secomam UviLine9400 spectrophotometer. The value of OD565 nm is proportional to the concentrations of bacteria in the suspensions. […]
This example describes the experimental protocol used to determine the reduced medium replacing the yeast extract that enables the growth of MSR-1 magnetotactic bacteria and the synthesis of magnetosomes by these bacteria. In this example we used non-pharmaceutical grade chemicals for the preparation of the growth media. The compositions of pre-growth and growth media, in one liter of de-ionized water, are indicated in table 2 (condition 2), table 3 (condition 3), and table 4 (condition 4). During the first day of the experiment (D1), a first step consists in collecting the tubes of 15 ml containing 5 mL of MSR-1 cellular stock tube from the freezer at −80° C., in thawing the tubes by letting them at room temperature for 10 minutes. In a hood, we collected from these tubes 100 μl comprising 5.10^6 MSR-1 magnetotactic bacteria that we have inserted in a 50 mL tube comprising 8 mL of filtered pre-growth medium of either condition 2 (table 2), condition 3 (table 3), or condition 4 (table 4). The 50 ml tubes were incubated for 6 days between D1 and D6 in an incubator at 29.5° C. under shaking conditions at 150 rpm. A second step consisted in adding an iron source to the growth media to enable the synthesis of magnetosomes by MSR-1 bacteria. After 6 days of pre-growth, at D6, the 50 ml tubes were placed in a hood. 30 ml of filtered growth medium were then added to the 50 mL tubes (condition 2, table 2, condition 3, table 3, condition 4, table 4) at D6 and the bacteria grew between D6 and D13. […] In contrast, the magnetic response is 0 for conditions Vit5X, Vit10X (condition 3) and very low for conditions CP, I, AA, P (condition 4). […]

[2] = test system: MSR-1 magnetotactic bacteria; assay type: cell-based; conditions: for magnetic response: condition 4, individual vitamin replacing yeast extract, at D13; for Magnetic response (%): condition 4, individual vitamins, D13
Experimental: Measurement of the magnetic response of living magnetotactic bacteria using optical microscopic observations of these bacteria under the application of a magnetic field: 1 mL of a suspension of MSR-1 magnetotactic bacteria was centrifugated at 14500 rpm for 10 minutes. The growth medium was removed and replaced by a volume of PBS 0.1× to reach an OD565 nm of 0.5. 1 μL of this suspension of MSR-1 magnetotactic bacteria was deposited on a parallelipedic microscope slide (Menzel-Glaser, 24 mm×60 mm, […]) for microscopic observation using a Zeiss Primo Vert optical microscope with X40 magnification. Four small cubic Neodinium magnets of strength 1.3 T (Supermagnet, N42 W-10-N 10×10×10 mm) were positioned on the microscope's platform at a distance from the suspension of bacteria of ˜2 cm in such a way that it either generated a magnetic field parallel to the position of the observer or to the line between the two binoculars (position 1) or perpendicular to this position (position 2). 20 seconds after positioning the magnet in position 1 or 2, the percentage of bacteria aligned in the direction of the magnetic field was estimated, by considering 200 magnetotactic bacteria. The bacteria that were not aligned in the same direction as the magnetic field generated by the magnet were considered as non-magnetic. Their number is designated as nBNM. The bacteria that were aligned in the direction of the magnetic field generated by the magnet were considered as magnetic. Their number was designated as nBM. The percentage of magnetic bacteria was then given by nBM/(nBM+nBNM). A positive magnetic response of magnetotatic bacteria corresponded to nBM/(nBM+nBNM)>0.5. A negative magnetic response of magnetotatic bacteria corresponds to nBM/(nBM+nBNM)<0.5.
In some cases, the percentage of magnetic bacteria can be measured by optical observation under microscope in the presence of a magnetic field.

With Cc1ncc(CO)c(CO)c1O.Cl [P, Pyridoxine HCl] the “Growth ratio (ODD13/ODD6)” value [1] was 2.8, the “Optical density following pre-growth (ODD6)” value [1] was 0.25 and the “Optical density following growth (ODD13)” value [1] was 0.7. The magnetic response [2] was “very low” and the “Magnetic response (%)” value [2] was 5%.

In the case of Nc1ccc(C(=O)O)cc1 [AA, p-Aminobenzoic acid], the “Growth ratio (ODD13/ODD6)” value [1] is reported as 6.7, the “Optical density following pre-growth (ODD6)” value [1] is reported as 0.12 and the “Optical density following growth (ODD13)” value [1] is reported as 0.8. The magnetic response [2] was “very low” and the “Magnetic response (%)” value [2] was 20%.

With Cc1cc2nc3c(=O)[nH]c(=O)nc-3n(C[C@H](O)[C@H](O)[C@H](O)CO)c2cc1C [Riboflavin] the “OD565 nmD13/OD565 nmD6” value [1] was 4.8, the “Growth ratio (ODD13/ODD6)” value [1] was 4.8 and the “Optical density following pre-growth (ODD6)” value [1] was 0.19. The “Optical density following growth (ODD13)” value [1] was 0.92, the magnetic response [2] was 90% and the “Magnetic response (%)” value [2] was over 90%.

O=C(O)CCCC[C@@H]1SC[C@@H]2NC(=O)N[C@@H]21 [Biotin] was tested, and the magnetic response [2] was 90% and the “Magnetic response (%)” value [2] was over 90%.

In the case of O[C@H]1[C@H](O)[C@@H](O)[C@H](O)[C@@H](O)[C@H]1O [I, Inositol], the “Growth ratio (ODD13/ODD6)” value [1] is reported as 2.4, the “Optical density following pre-growth (ODD6)” value [1] is reported as 0.33 and the “Optical density following growth (ODD13)” value [1] is reported as 0.8. For the same molecule, the magnetic response [2] was “very low” and the “Magnetic response (%)” value [2] was 20%.

In the case of Nc1nc2ncc(CNc3ccc(C(=O)N[C@@H](CCC(=O)O)C(=O)O)cc3)nc2c(=O)[nH]1 [folic acid, Folic acid], the “OD565 nmD13/OD565 nmD6” value [1] is reported as 2.9, the “Growth ratio (ODD13/ODD6)” value [1] is reported as 2.9 and the “Optical density following pre-growth (ODD6)” value [1] is reported as 0.4. For the same molecule, the “Optical density following growth (ODD13)” value [1] was 1.14, the magnetic response [2] was 90% and the “Magnetic response (%)” value [2] was 50%.

In the case of Calcium pantothenate [CP], the “Growth ratio (ODD13/ODD6)” value [1] is reported as 3.3, the “Optical density following pre-growth (ODD6)” value [1] is reported as 0.3 and the “Optical density following growth (ODD13)” value [1] is reported as 0.98. For the same molecule, the magnetic response [2] was “very low” and the “Magnetic response (%)” value [2] was 5%.

With O=C(O)c1cccnc1 [nicotinic acid, Nicotinic acid] the “OD565 nmD13/OD565 nmD6” value [1] was 2.4, the “Growth ratio (ODD13/ODD6)” value [1] was 2.4 and the “Optical density following pre-growth (ODD6)” value [1] was 0.27. The “Optical density following growth (ODD13)” value [1] was 0.65, the magnetic response [2] was 90% and the “Magnetic response (%)” value [2] was over 90%.

For Thiamine HCl, the “OD565 nmD13/OD565 nmD6” value ([1]; listed as thiamin HCl, HCl) was 5.8, the “Growth ratio (ODD13/ODD6)” value [1] was 5.8 and the “Optical density following pre-growth (ODD6)” value [1] was 0.26. For the same molecule, the “Optical density following growth (ODD13)” value [1] was 1.51, the magnetic response ([2]; listed as thiamin HCl, HCl) was 90% and the “Magnetic response (%)” value [2] was over 90%.
